Experimental data reported in publication PMC9762789, “Chromone-based monoamine oxidase B inhibitor with potential iron-chelating activity for the treatment of Alzheimer’s disease” (Journal of Enzyme Inhibition and Medicinal Chemistry, 2022).
“Also recorded” adds a separate entry of the source. Read-outs that look alike come from different tables or passages of the source.

Key:
PC-12 cells = assay: Cytotoxicity test (MTT); format: cell-based; settings: 24 h, up to 50 µM
Procedure: (§1) To examine the interaction mode of 17d on MAO-B, kinetic studies were carried out. From the Lineweaver–Burk plots (Figure 5(B)), we observed that 17d operated by a non-competitive inhibition mechanism. […] Subsequently, the potential toxic effect of 17d was investigated on pheochromocytoma (PC-12) cells.
Neural pheochromocytoma-derived PC-12 cells at the log phase of their growth cycle (8 × 10^4 cells/ml) were added to each well (100 μl/well) and incubated for 24 h at 37 °C in a humidified atmosphere of 5% CO2. Then three replicates at various concentrations of the samples (3.13, 6.25, 12.5, 25, and 50 μM) were added to each well (100 μl/well). After incubating for 24 h, 20 μl of MTT solution (5 mg/ml/well) was added to each culture medium, which was then incubated for another 4 h. Then DMSO was added to each well (150 μl/well). After 10 min at room temperature, the OD values of each well were measured on a Microplate Reader (BioTek ELx800, Winooski, VT) at the wavelength of 490 nm.

[1] = iron (III) affinity constants and pFe3+ by spectrophotometric titration; format: physicochemical
MAO-B [2] = target: T1, MAO-B (Homo sapiens, UniProt P27338); assay: MAO-B kinetic study (Michaelis-Menten, Lineweaver-Burk, p-tyramine substrate); format: biochemical
T1 construct: purchased Sigma-Aldrich
T1 sequence (P27338 1-520): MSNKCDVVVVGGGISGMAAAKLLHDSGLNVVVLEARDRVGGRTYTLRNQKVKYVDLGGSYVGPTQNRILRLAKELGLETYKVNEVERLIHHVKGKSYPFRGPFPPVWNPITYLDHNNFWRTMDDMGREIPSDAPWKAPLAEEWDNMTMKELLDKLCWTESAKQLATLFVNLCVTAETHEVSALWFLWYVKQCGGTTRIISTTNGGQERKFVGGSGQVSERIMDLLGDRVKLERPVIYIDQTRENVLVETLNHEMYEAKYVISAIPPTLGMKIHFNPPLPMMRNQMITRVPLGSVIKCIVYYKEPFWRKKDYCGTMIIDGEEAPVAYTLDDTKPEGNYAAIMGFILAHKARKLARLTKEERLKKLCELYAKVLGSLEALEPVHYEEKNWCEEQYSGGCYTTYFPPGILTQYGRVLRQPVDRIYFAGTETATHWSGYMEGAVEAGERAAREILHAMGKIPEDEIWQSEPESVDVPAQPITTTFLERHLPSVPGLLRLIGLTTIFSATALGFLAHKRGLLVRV
Procedure: Figure 5. Kinetic study and cytotoxicity assay of compound 17d. […] The Cytotoxicity effect of compound 17d on PC-12 cells (C).
as §1
To further examine the interaction mode of compound 17d, the type of enzyme inhibition was determined by Michealis–Menten kinetic experiments. The catalytic rates of MAO‐B enzyme were measured at six different concentrations of substrate p‐tyramine (0.05, 0.1, 0.25, 0.5, 1.0, and 1.25 mM) in the absence and in the three different concentrations (33.3, 100, and 300 nM) of compound 17d. The corresponding dose‐response curves and the nonlinear/linear regression analysis were performed using GraphPad Prism version 6 software (Graphpad Software Inc., La Jolla, CA).

[3] = pKa determination by automated spectrophotometric titration; format: physicochemical; settings: 0.1 M KCl solution
MAO-B [4] = target: T1, MAO-B; assay: hMAO-B inhibition assay; format: biochemical
Procedure: The reagents and enzymes (Human MAO-B and Human MAO-A) applied in this experiment were purchased from Sigma-Aldrich. According to the manuals, all components (substrate solution and enzyme solution) are diluted and placed aside for use. The detailed process has been mentioned in our early work[34].

PAMPA-BBB assay = format: in vitro ADME
Excerpt: Good blood–brain barrier (BBB) permeability is the key to exerting drug efficacy in the treatment of central nervous system diseases. To evaluate whether the target compound could penetrate BBB, a parallel artificial membrane permeability assay (PAMPA) was used to predict[32]^,[33]. […] Therefore, due to its potential ability to cross the BBB, compound 17d was selected for subsequent assay.
PAMPA was used to predict the BBB permeability of the screened compound. The detailed process has been mentioned in our early work[32]^,[33].

[5] = DMSO: KCl (0.1 M) = 1:1.5 (v/v)

In the case of `COc1ccc2c(=O)c(CNCCn3ccc(=O)c(O)c3C)coc2c1` [Compound 17d, 3-Hydroxy-1–(2-(((7-methoxy-4-oxo-4H-chromen-3-yl)methyl)amino)ethyl)-2-methylpyridin-4(1H)-one], the cytotoxicity (PC-12 cells) is reported as “no cytotoxicity; also recorded: noncytotoxic”, the “Log β1” value [1, 5] is reported as 13.50 and the “Log β2” value [1, 5] is reported as 25.21. The “Log β3” value [1, 5] was 35.13, the “pFe^3+” value ([1]; calculated from Log β values obtained in DMSO: KCl (0.1 M) = 1:1.5 (v/v)) was 18.52 and the inhibition mechanism (MAO-B [2]; Lineweaver–Burk plots) was “non-competitive”. It also gave a Ki (MAO-B [2]; p-tyramine substrate, GraphPad Prism, read-out: inhibition constant (Ki)) of 74.7 nM, a pKa ([3]; read-out: pKa1) of 2.86 and a pKa ([3]; read-out: pKa2) of 9.78. For the same compound, the IC50 (MAO-B [4]) was 67 ± 4.3 nM, the “SI: hMAO-B selectivity index = IC50 (hMAO-A)/IC50 (hMAO-B)” value (MAO-B [4]) was 11.0 and the inhibition at 0.1 µM (MAO-B [4]; hMAO-B, 100 nM, read-out: Inhibitory rate (%, 100 nM)) was 48.9 ± 1.4%. For the same compound, the Papp (PAMPA-BBB assay; PAMPA-BBB, mean ± SEM of eight independent experiments, read-out: Pe ± SEM) was 2.73 ± 0.07 ×10⁻⁶ cm/s and the CNS (PAMPA-BBB assay; class from PAMPA-BBB Pe) was “± (CNS (±) (BBB permeation uncertain); Pe (× 10^−6 cm s^−1) from 2.0 to 4.0)”.
